Legend:
[1] = test system: Human immunodeficiency virus 1; test: microbe, parasite or virus in culture; conditions: Human immunodeficiency virus 1, Ba-L
Description: Antiviral activity against R5 tropic HIV1 Ba-L infected PBMC assessed as inhibition of viral p24 antigen expression

[2] = biological target: C-C chemokine receptor type 5 (Homo sapiens, UniProt P51681); test: Antagonist activity at human CCR5 expressed in CHO cells assessed as inhibition of MIP-1alpha-induced calcium mobilization; type: functional, cell-based
[3] = test system: Liver microsomes; test: Metabolic stability in rat liver microsomes assessed as compound remaining after 15 mins; type: ADME, Microsome; conditions: 0.25 h
[4] = test system: Liver microsomes; test: Metabolic stability in human liver microsomes assessed as compound remaining after 15 mins; type: ADME, Microsome; conditions: 0.25 h
[5] = Half life in rat at 10 mg/kg, po; type: ADME, organism-based; set-up: dose 10 mg/kg, route oral; conditions: in vivo
[6] = Bioavailability in rat at 10 mg/kg, po; type: ADME, organism-based; conditions: in vivo
[7] = Clearance in rat at 3 mg/kg, iv; type: ADME, organism-based; set-up: dose 3 mg/kg, route intravenous; conditions: in vivo
[8] = test system: Rattus norvegicus; test: Dose normalized Cmax in rat at 10 mg/kg, po; type: ADME, organism-based; set-up: dose 10 mg/kg, route oral; conditions: in vivo
[9] = test system: Rattus norvegicus; test: Dose normalized AUC in rat at 10 mg/kg, po; type: ADME, organism-based; set-up: dose 10 mg/kg, route oral; conditions: in vivo
[10] = AUC in rat at 3 mg/kg, iv; type: ADME, organism-based; set-up: dose 3 mg/kg, route intravenous; conditions: plasma
[11] = Half life in rat at 3 mg/kg, iv; type: ADME, organism-based; set-up: dose 3 mg/kg, route intravenous; conditions: in vivo
[12] = Cmax in rat at 10 mg/kg, po; type: ADME, organism-based; set-up: dose 10 mg/kg, route oral; conditions: in vivo
[13] = Volume of distribution at steady state in rat at 3 mg/kg, iv; conditions: in vivo
[14] = Aqueous solubility of the compound at pH 6.8; type: physicochemical; conditions: buffer
[15] = test system: Rhesus monkey; test: Half life in monkey at 10 mg/kg, po; type: ADME, organism-based, Macaca mulatta; set-up: dose 10 mg/kg, route oral; conditions: in vivo
[16] = Half life in dog at 3 mg/kg, po; type: ADME, organism-based, Canis lupus familiaris; set-up: dose 3 mg/kg, route oral; conditions: in vivo
[17] = test system: Canis familiaris; test: Cardiotoxicity in dog at 100 mg/kg, po after 14 days; type: toxicity, organism-based, Canis lupus familiaris; set-up: dose 100 mg/kg, route oral; conditions: in vivo, 336 h
[18] = Clearance in dog at 1 mg/kg, iv; type: ADME, organism-based, Canis lupus familiaris; set-up: dose 1 mg/kg, route intravenous; conditions: in vivo
[19] = in vivo; conditions: dog, plasma, po, 3 mg/kg
[20] = Clearance in monkey at 1 mg/kg, iv; type: ADME, organism-based, Macaca mulatta; set-up: dose 1 mg/kg, route intravenous; conditions: rhesus monkey, in vivo
[21] = in vivo; conditions: dog, po, 3 mg/kg
[22] = Bioavailability in monkey at 1 mg/kg, iv; type: ADME, organism-based, Macaca mulatta; conditions: rhesus monkey, in vivo
[23] = test system: Salmonella typhimurium; test: Genotoxicity in Salmonella Typhimurium by Ames test; type: toxicity, organism-based; conditions: salmonella enterica subsp. enterica serovar typhimurium
[24] = Bioavailability in rat at 1 mg/kg, iv; type: ADME, organism-based; conditions: in vivo
[25] = test system: Rattus norvegicus; test: Toxicity in rat at 100 mg/kg, po after 14 days; type: organism-based; set-up: dose 100 mg/kg, route oral; conditions: in vivo, 336 h
[26] = Bioavailability in dog at 1 mg/kg, iv; type: ADME, organism-based, Canis lupus familiaris; conditions: in vivo
[27] = Clearance in rat at 1 mg/kg, iv; type: ADME, organism-based; set-up: dose 1 mg/kg, route intravenous; conditions: in vivo

C-C chemokine receptor type 5, sequence (P51681 whole entry): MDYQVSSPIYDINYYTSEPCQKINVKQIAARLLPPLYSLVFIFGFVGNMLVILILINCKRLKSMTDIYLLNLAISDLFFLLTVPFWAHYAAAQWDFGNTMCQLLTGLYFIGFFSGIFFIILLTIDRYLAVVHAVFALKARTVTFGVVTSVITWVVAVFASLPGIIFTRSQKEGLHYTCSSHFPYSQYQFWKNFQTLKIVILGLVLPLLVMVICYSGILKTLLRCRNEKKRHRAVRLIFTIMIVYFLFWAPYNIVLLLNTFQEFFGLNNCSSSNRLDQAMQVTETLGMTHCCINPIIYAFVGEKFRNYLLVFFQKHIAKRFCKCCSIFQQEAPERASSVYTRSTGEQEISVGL

CCCCN1C(=O)[C@H](CC2CCCCC2)NC(=O)C12CCN(Cc1ccc(Oc3ccc(C(=O)O)cc3)cc1)CC2
IC90 [1]: 0.171 µM

CCCCN1C(=O)[C@@H]([C@H](O)C2CCCCC2)NC(=O)C12CCN(Cc1ccc(Oc3ccc(OC)cc3)cc1)CC2
IC50 [2]: 0.091 µM

CCCCN1C(=O)[C@@H]([C@H](O)C2CCCCC2)NC(=O)C12CCN(Cc1ccc(Oc3ccc(O)cc3)cc1)CC2.Cl
IC50 [2]: 0.068 µM | Stability [3]: 23% | Stability [4]: 3.5%

CCCCN1C(=O)[C@@H]([C@H](O)C2CCCCC2)NC(=O)C12CCN(Cc1ccc(Oc3ccc(C(N)=O)cc3)cc1)CC2.Cl
IC50 [2]: 0.039 µM | Stability [3]: 19% | Stability [4]: 1.5%

CCCCN1C(=O)[C@@H]([C@H](O)C2CCCCC2)NC(=O)C12CCN(Cc1ccc(Oc3ccc(C(=O)NC)cc3)cc1)CC2.Cl
half-life [5]: 1.22 h | bioavailability [6]: 10% | clearance [7]: 12.8 mL/min/kg | Cmax/dose [8]: 333 ng/mL | AUC/dose [9]: 1296 ng·h/mL | AUC [10]: 3780 ng·h/mL | half-life [11]: 0.46 h | IC50 [2]: 0.038 µM

CCCCN1C(=O)[C@@H]([C@H](O)C2CCCCC2)NC(=O)C12CCN(Cc1ccc(Oc3ccc(S(N)(=O)=O)cc3)cc1)CC2
IC50 [2]: 0.048 µM

CCCCN1C(=O)[C@@H]([C@H](O)C2CCCCC2)NC(=O)C12CCN(Cc1ccc(Oc3ccc(S(C)(=O)=O)cc3)cc1)CC2
IC50 [2]: 0.034 µM

CCCCN1C(=O)[C@@H]([C@H](O)C2CCCCC2)NC(=O)C12CCN(Cc1ccc(Oc3ccc(NS(C)(=O)=O)cc3)cc1)CC2.Cl
half-life [5]: 3.42 h | bioavailability [6]: 5% | clearance [7]: 25 mL/min/kg | Cmax/dose [8]: 50 ng/mL | AUC/dose [9]: 242 ng·h/mL | AUC [10]: 1540 ng·h/mL | half-life [11]: 2.28 h | Stability [3]: 91% | Stability [4]: 1.8%

CCCCN1C(=O)[C@@H]([C@H](O)C(C)C)NC(=O)C12CCN(Cc1ccc(Oc3ccc(C(=O)O)cc3)cc1)CC2.Cl
half-life [5]: 4.5 h | bioavailability [6]: 5.9% | clearance [7]: 21.2 mL/min/kg | IC50 [1]: 0.059 µM | IC90 [1]: 0.591 µM | AUC [10]: 2310 ng·h/mL | half-life [11]: 0.22 h | IC50 [2]: 0.048 µM | Stability [3]: 100% | Cmax [12]: 137 ng/mL | Stability [4]: 98%

CCCCN1C(=O)[C@@H]([C@H](O)C2CC2)NC(=O)C12CCN(Cc1ccc(Oc3ccc(C(=O)O)cc3)cc1)CC2.Cl
IC50 [2]: 0.081 µM | Stability [3]: 100% | Stability [4]: 89%

CCCCN1C(=O)[C@@H]([C@H](O)C2CCC2)NC(=O)C12CCN(Cc1ccc(Oc3ccc(C(=O)O)cc3)cc1)CC2.Cl
IC50 [2]: 0.025 µM | Stability [3]: 100% | Stability [4]: 95%

CCCCN1C(=O)[C@@H]([C@H](O)C2CCCC2)NC(=O)C12CCN(Cc1ccc(Oc3ccc(C(=O)O)cc3)cc1)CC2.Cl
IC50 [2]: 0.033 µM | Stability [3]: 100% | Stability [4]: 93%

CCCCN1C(=O)[C@@H]([C@H](O)C2CCCCCC2)NC(=O)C12CCN(Cc1ccc(Oc3ccc(C(=O)O)cc3)cc1)CC2.Cl
IC50 [2]: 0.032 µM | Stability [3]: 59% | Stability [4]: 34%

CCCCN1C(=O)[C@@H]([C@H](O)C2CCOCC2)NC(=O)C12CCN(Cc1ccc(Oc3ccc(C(=O)O)cc3)cc1)CC2
IC50 [2]: 0.12 µM

CCCCN1C(=O)[C@@H]([C@H](O)C2CCC(O)CC2)NC(=O)C12CCN(Cc1ccc(Oc3ccc(C(=O)O)cc3)cc1)CC2.Cl (some centres not stated)
IC50 [2]: 0.14 µM | Stability [3]: 100% | Stability [4]: 100%

CCCCN1C(=O)[C@@H]([C@@H](O)C2CCC(O)CC2)NC(=O)C12CCN(Cc1ccc(Oc3ccc(C(=O)O)cc3)cc1)CC2.Cl (some centres not stated)
IC50 [2]: 0.023 µM | Stability [3]: 92%

CN1C(=O)[C@@H]([C@H](O)C2CCCCC2)NC(=O)C12CCN(Cc1ccc(Oc3ccc(C(=O)O)cc3)cc1)CC2
IC50 [2]: 0.05 µM

CCN1C(=O)[C@@H]([C@H](O)C2CCCCC2)NC(=O)C12CCN(Cc1ccc(Oc3ccc(C(=O)O)cc3)cc1)CC2
IC50 [2]: 0.023 µM

CCN1C(=O)[C@@H]([C@H](O)C2CCCCC2)NC(=O)C12CCN(Cc1ccc(Oc3ccc(C(=O)NC)cc3)cc1)CC2
IC50 [2]: 0.02 µM

CCCN1C(=O)[C@@H]([C@H](O)C2CCCCC2)NC(=O)C12CCN(Cc1ccc(Oc3ccc(C(=O)NC)cc3)cc1)CC2.Cl
half-life [5]: 2 h | bioavailability [6]: 11.2% | clearance [7]: 35.9 mL/min/kg | Cmax/dose [8]: 133 ng/mL | AUC/dose [9]: 513 ng·h/mL | Vd [13]: 1.73 L/kg | AUC [10]: 1370 ng·h/mL | half-life [11]: 0.72 h | IC50 [2]: 0.028 µM

CCCCCN1C(=O)[C@@H]([C@H](O)C2CCCCC2)NC(=O)C12CCN(Cc1ccc(Oc3ccc(C(=O)NC)cc3)cc1)CC2
IC50 [2]: 0.068 µM

CCCCCCN1C(=O)[C@@H]([C@H](O)C2CCCCC2)NC(=O)C12CCN(Cc1ccc(Oc3ccc(C(=O)NC)cc3)cc1)CC2
IC50 [2]: 0.11 µM

CCCCCCCN1C(=O)[C@@H]([C@H](O)C2CCCCC2)NC(=O)C12CCN(Cc1ccc(Oc3ccc(C(=O)NC)cc3)cc1)CC2
IC50 [2]: 0.19 µM

CNC(=O)c1ccc(Oc2ccc(CN3CCC4(CC3)C(=O)N[C@H]([C@H](O)C3CCCCC3)C(=O)N4CCC(C)O)cc2)cc1 (some centres not stated)
IC50 [2]: 0.18 µM

CNC(=O)c1ccc(Oc2ccc(CN3CCC4(CC3)C(=O)N[C@H]([C@H](O)C3CCCCC3)C(=O)N4CCOC)cc2)cc1
IC50 [2]: 0.033 µM

CNC(=O)c1ccc(Oc2ccc(CN3CCC4(CC3)C(=O)N[C@H]([C@H](O)C3CCCCC3)C(=O)N4CC(F)(F)F)cc2)cc1
IC50 [2]: 0.046 µM

CNC(=O)c1ccc(Oc2ccc(CN3CCC4(CC3)C(=O)N[C@H]([C@H](O)C3CCCCC3)C(=O)N4CC(F)(F)C(F)(F)F)cc2)cc1
IC50 [2]: 0.27 µM

CCCCN1C(=O)C(C(C)C)NC(=O)C12CCN(Cc1ccc(Oc3ccccc3)cc1)CC2.Cl (configuration not stated)
half-life [5]: 1.26 h | bioavailability [6]: 1.3% | Cmax/dose [8]: 33.3 ng/mL | AUC/dose [9]: 96.7 ng·h/mL | AUC [10]: 372 ng·h/mL | half-life [11]: 0.217 h | solubility [14]: 0.2 µg/mL

CCCCN1C(=O)C(CC2CCCCC2)NC(=O)C12CCN(Cc1ccc(Oc3ccc(C(=O)NC)cc3)cc1)CC2.Cl (configuration not stated)
half-life [5]: 1.72 h | bioavailability [6]: 1.9% | clearance [7]: 113 mL/min/kg | Cmax/dose [8]: 5.6 ng/mL | AUC/dose [9]: 24.8 ng·h/mL | AUC [10]: 400 ng·h/mL | half-life [11]: 0.332 h

CNC(=O)c1ccc(Oc2ccc(CN3CCC4(CC3)C(=O)N[C@H]([C@H](O)C3CCCCC3)C(=O)N4CCN(C)C)cc2)cc1
IC50 [2]: 0.64 µM

CNC(=O)c1ccc(Oc2ccc(CN3CCC4(CC3)C(=O)N[C@H]([C@H](O)C3CCCCC3)C(=O)N4CCN)cc2)cc1
IC50 [2]: 0.75 µM

Cc1ccc(-c2ccc3c(c2)C=C(C(=O)Nc2ccc(C[N+](C)(C)C4CCOCC4)cc2)CCC3)cc1
IC90 [1]: 0.256 µM

CCCCN1C(=O)[C@@H]([C@H](O)C2CCCCC2)NC(=O)C12CCN(Cc1ccc(Oc3ccccc3)cc1)CC2.Cl
Stability [3]: 18% | Stability [4]: 6%

CCCCN1C(=O)[C@@H]([C@H](O)C(C)C)NC(=O)C12CCN(Cc1ccc(Oc3ccccc3)cc1)CC2.Cl
solubility [14]: 2.7 µg/mL

Cc1c(O)cccc1C(=O)N[C@@H](CSc1ccccc1)[C@H](O)CN1C[C@H]2CCCC[C@H]2C[C@H]1C(=O)NC(C)(C)C
IC90 [1]: 0.105 µM

CCCCN1C(=O)[C@@H]([C@H](O)C2CCCCC2)NC(=O)C12CCN(Cc1ccc(Oc3ccc(C(=O)O)cc3)cc1)CC2.Cl [APLAVIROC HYDROCHLORIDE]
t1/2 [15]: 24.4 h | half-life [16]: 4.5 h | Activity [17]: Non-toxic | IC90 [1]: 0.012 µM | clearance [18]: 33 mL/min | AUC [19]: 189 ng·h/mL | clearance [20]: 15 mL/min | Cmax [21]: 135 ng/mL | bioavailability [22]: 4.6% | Activity [23]: Non-toxic | bioavailability [24]: 23% | Activity [25]: Non-toxic | bioavailability [26]: 12% | clearance [27]: 10 mL/min

COC[C@@H](c1ccc(C(F)(F)F)cc1)N1CCN(C2(C)CCN(C(=O)c3c(C)ncnc3C)CC2)C[C@@H]1C [VICRIVIROC]
IC90 [1]: 0.079 µM

Cc1cn([C@H]2C[C@H](N=[N+]=[N-])[C@@H](CO)O2)c(=O)[nH]c1=O [ZIDOVUDINE]
IC90 [1]: 0.048 µM

— ChEMBL document CHEMBL1811891 (Bioorg Med Chem, 2011)
